Source: patent US20160375016A1, “METHODS FOR REDUCING ANXIETY AND IMPULSIVITY IN SUBJECTS INITIATING TREATMENT WITH SEROTONIN REUPTAKE INHIBITORS” (THE JOHNS HOPKINS UNIVERSITY, priority 2013, published 2016)
Where two headings read alike, the source gives them in different places.

Tests used:
C57BL/6 mice = assay: Elevated plus maze after acute drug administration; assay type: in vivo, mouse; conditions: for anxiety in the elevated plus maze compared to Control mice: FIG. 1A legend, result in words; for time spent in the open arm of the elevated plus maze: reboxetine specificity experiment, FIG. 1D, saline 12.3±3.2, n=8 mice per group
Description: Animals and Housing. 7-8 week old male C57BL/6 mice were obtained from the National Cancer Institute (Frederick, Md.) and housed in the Broadway Research Building Johns Hopkins animal facility. Housing and behavioral testing rooms were temperature controlled with a 12 h light/dark cycle, and all behavioral tests were conducted during the light cycle. Animal protocols were approved by the Johns Hopkins University School of Medicine Animal Care and Use Committee.
Drug administration. […]
Elevated Plus Maze. Mice (n=10) were tested on the elevated plus maze in an isolated behavior suite. Mice were placed in the center of the maze and given 5 minutes to freely explore the maze. Time spent in open and closed arms of the maze were tracked using ANY-maze software (Stoelting, Wood Dale, Ill.).
Statistical Analyses. Statistical analyses were completed using GraphPad Prism 5.0 (La Jolla, Calif.). Comparisons between groups in the animal studies were made with one-way ANOVA, and P values <0.05 were considered statistically significant. The Johns Hopkins Institute for Clinical and Translational Research Biostatistics Center provided statistical support.

[1] = cited from earlier work
[2] = assumed from literature for one-compartment model

SMILES: COc1ccccc1N1CCN(CCN(C(=O)C2CCCCC2)c2ccccn2)CC1 [WAY-100635]
- anxiety in the elevated plus maze compared to Control mice (C57BL/6 mice): no effect
- reversal of anxiety when co-administered with the SNRI reboxetine (C57BL/6 mice; FIG. 1D legend): does not reverse anxiety
- reversal of anxiety when coadministered with the SSRI fluoxetine (C57BL/6 mice; FIG. 1D legend): reverses anxiety
- time spent in the open arms of the elevated plus maze (C57BL/6 mice; acute treatment 40 minutes before testing, fluoxetine 20 mg/kg, WAY-100635 0.3 mg/kg, FIG. 1A, Control 20.03±10.12): 20.82 ± 15.18 s

SMILES: CN(C)CCCC1(c2ccc(F)cc2)OCc2cc(C#N)ccc21 (centres unmarked) [citalopram]
- Tmax [1, 2]: 4 h
- V (apparent volume of distribution) [1, 2]: 840 L
- t1/2 [1, 2]: 35 h

SMILES: CNCCC(Oc1ccc(C(F)(F)F)cc1)c1ccccc1 (centres unmarked) [fluoxetine]
- trough concentration at steady-state ([1]; Prozac Full Prescribing Information): 72 to 258 ng/mL
- half-life (t1/2) ([1]; single 40-mg dose of Prozac): 48 h
- peak drug concentration (Cmax) ([1]; single 40-mg dose of Prozac): 0.035 µg/mL
- anxiety in the elevated plus maze compared to Control mice (C57BL/6 mice): more anxious
- less time in the open arms compared to Control mice (C57BL/6 mice; acute fluoxetine 20 mg/kg vs saline): 72%
- time spent in the open arm of the elevated plus maze (C57BL/6 mice): 4.0 ± 4.5 s

SMILES: COCCCC/C(=N\OCCN)c1ccc(C(F)(F)F)cc1 [fluvoxamine]
- Cmax ([1]; after a single 50 mg dose): 0.03 µg/mL
- Tmax ([1]; after a single 50 mg dose): 6 h
- t1/2 ([1]; after a single 50 mg dose): 19 h

SMILES: Fc1ccc([C@@H]2CCNC[C@H]2COc2ccc3c(c2)OCO3)cc1 [paroxetine]
- Cmax ([1]; after a single 30 mg dose): 0.0176 µg/mL
- Tmax ([1]; after a single 30 mg dose): 6.3 h
- t1/2 ([1]; after a single 30 mg dose): 16 h

SMILES: CCOc1ccccc1OC(c1ccccc1)C1CNCCO1 (centres unmarked) [reboxetine]
- time spent in the open arm of the elevated plus maze (C57BL/6 mice): 10.6 ± 10.8 s

SMILES: CN[C@H]1CC[C@@H](c2ccc(Cl)c(Cl)c2)c2ccccc21 [sertraline]
- Tmax [1, 2]: 6.5 h
- V (apparent volume of distribution) [1, 2]: 1400 L
- t1/2 [1, 2]: 26 h

SMILES: COc1ccc(C(CN(C)C)C2(O)CCCCC2)cc1 (centres unmarked) [venlafaxine]
- Tmax [1, 2]: 8 h
- V (apparent volume of distribution) [1, 2]: 426 L
- t1/2 [1, 2]: 16.9 h
